Molecular target: CFTR-mediated chloride transport (Homo sapiens, UniProt P13569)
Experiment: Corrector Assay A - membrane potential dye assay (enteroid cells)
Details: for Corrector Assay A % activity: % of chloride transport of triple combination control (1 μM (14S)-dispiro macrocycle + 3 μM tezacaftor + 300 nM ivacaftor); for EC50: read-out: Corrector Assay A EC50, human intestinal enteroid cells, 18-24 h incubation, acute 10 μM forskolin + 300 nM ivacaftor
Procedure: Base medium (ADF+++) consisted of Advanced DMEM/Ham's F12, 2 mM Glutamax, 10 mM HEPES, 1 μg/ml penicillin/streptomycin.
Intestinal enteroid maintenance medium (IEMM) consisted of ADF+++, 1×B27 supplement, 1×N2 supplement, 1.25 mM N-acetyl cysteine, 10 mM Nicotinamide, 50 ng/mL hEGF, 10 nM Gastrin, 1 μg/mL hR-spondin-1, 100 ng/mL hNoggin, TGF-b type 1 inhibitor A-83-01, 100 μg/mL Primocin, 10 μM P38 MAPK inhibitor SB202190.
Bath 1 Buffer consisted of 1 mM MgCl2, 160 mM NaCl, 4.5 mM KCl, 10 mM HEPES, 10 mM Glucose, 2 mM CaCl2).
Chloride Free Buffer consisted of 1 mM Magnesium Gluconate, 2 mM Calcium Gluconate, 4.5 mM Potassium Gluconate, 160 mM Sodium Gluconate, 10 mM HEPES, 10 mM Glucose.
Bath 1 Dye Solution consisted of Bath 1 Buffer, 0.04% Pluronic F127, 20 μM Methyl Oxonol, 30 μM CaCCinh-A01, 30 μM Chicago Sky Blue.
Chloride Free Dye Solution consisted of Chloride Free Buffer, 0.04% Pluronic F127, 20 μM Methyl Oxonol, 30 μM CaCCinh-A01, 30 μM Chicago Sky Blue.
Chloride Free Dye Stimulation Solution consisted of Chloride Free Dye Solution, 10 μM forskolin, 100 μM IBMX, and 300 nM Ivacaftor.
Cells were recovered in cell recovery solution, collected by centrifugation at 650 rpm for 5 min at 4° C., resuspended in TryPLE and incubated for 5 min at 37° C. Cells were then collected by centrifugation at 650 rpm for 5 min at 4° C. and resuspended in IEMM containing 10 μM ROCK inhibitor (RI). The cell suspension was passed through a 40 μm cell strainer and resuspended at 1×10^6 cells/mL in IEMM containing 10 μM RI. Cells were seeded at 5000 cells/well into multi-well plates and incubated for overnight at 37° C., 95% humidity and 5% CO2 prior to assay.
Briefly, cells were washed 5 times in Bath 1 Buffer. Bath 1 Dye Solution was added and the cells were incubated for 25 min at room temperature. Following dye incubation, cells were washed 3 times in Chloride Free Dye Solution. Chloride transport was initiated by addition of Chloride Free Dye Stimulation Solution and the fluorescence signal was read for 15 min. The CFTR-mediated chloride transport for each condition was determined from the AUC of the fluorescence response to acute forskolin and 300 nM N-[2,4-bis(1,1-dimethylethyl)-5-hydroxyphenyl]-1,4-dihydro-4-oxoquinoline-3-carboxamide stimulation. Chloride transport was then expressed as a percentage of the chloride transport following treatment with 1 μM (14S)-8-[3-(2-{Dispiro[2.0.2.1]heptan-7-yl}ethoxy)-1H-pyrazol-1-yl]-12,12-dimethyl-2λ^6-thia-3,9,11,18,23-pentaazatetracyclo[17.3.1.111,14.05,10]tetracosa-1(22),5,7,9,19(23),20-hexaene-2,2,4-trione, 3 μM (R)-1-(2,2-difluorobenzo[d][1,3]dioxol-5-yl)-N-(1-(2,3-dihydroxypropyl)-6-fluoro-2-(1-hydroxy-2-methylpropan-2-yl)-1H-indol-5-yl)cyclopropanecarboxamide and 300 nM acute N-[2,4-bis(1,1-dimethylethyl)-5-hydroxyphenyl]-1,4-dihydro-4-oxoquinoline-3-carboxamide triple combination control (% Activity).

Structure (SMILES) | Corrector Assay A % activity | EC50 [nM]
CC(C)(C)c1ccc2c(n1)N1CC(CCN(c3ccccc3)C(=O)c3cccc(c3)S(=O)(=O)NC2=O)CC1(C)C (single isomer, unassigned) [Compound 267, 8-tert-Butyl-12,12-dimethyl-17-phenyl-2λ^6-thia-3,9,11,17-tetraazatetracyclo[17.3.1.111,14.05,10]tetracosa-1(22),5,7,9,19(23),20-hexaene-2,2,4,18-tetrone] | + (+ is <30%) | > 3000
CC(C)(C)c1ccc2c(n1)N1C[C@@H](CC[C@@H](C3CCOCC3)Nc3cccc(n3)S(=O)(=O)NC2=O)CC1(C)C (single isomer, unassigned) [Compound 268] | +++ (+++ is >60%) | < 1000
CC(C)(C)c1ccc2c(n1)N1C[C@@H](CC[C@@H](C3CCOCC3)Nc3cccc(n3)S(=O)(=O)NC2=O)CC1(C)C (single isomer, unassigned) [Compound 269] | ++ (++ is 30-60%) | < 1000
CC(C)CN1c2cccc(n2)S(=O)(=O)NC(=O)c2ccc(C(C)(C)C)nc2N2C[C@@H](CCC1c1ccccc1)CC2(C)C (single isomer, unassigned) [Compound 270] | + (+ is <30%) | 
CC(C)CN1c2cccc(n2)S(=O)(=O)NC(=O)c2ccc(C(C)(C)C)nc2N2C[C@@H](CC[C@H]1c1ccccc1)CC2(C)C (single isomer, unassigned) [Compound 271] | + (+ is <30%) | 
CC1CCC2CN(c3nc(C(C)(C)C)ccc3C(=O)NS(=O)(=O)c3ccn1n3)C(C)(C)C2 (single isomer, unassigned) [Compound 272] | +++ (+++ is >60%) | < 1000
CC1CCC2CN(c3nc(C(C)(C)C)ccc3C(=O)NS(=O)(=O)c3ccn1n3)C(C)(C)C2 (single isomer, unassigned) [Compound 273] | ++ (++ is 30-60%) | 1000 to 3000
CC(C)(C)c1ccc2c(n1)N1C[C@@H](CCC(c3ccccc3)n3ccc(n3)S(=O)(=O)NC2=O)CC1(C)C (single isomer, unassigned) [Compound 274] | ++ (++ is 30-60%) | < 1000
CC(C)(C)c1ccc2c(n1)N1C[C@@H](CCC(c3ccccc3)n3ccc(n3)S(=O)(=O)NC2=O)CC1(C)C (single isomer, unassigned) [Compound 275] | ++ (++ is 30-60%) | < 1000
COC[C@@H]1CC[C@@H]2CN(c3nc(C(C)(C)C)ccc3C(=O)NS(=O)(=O)c3cccc(n3)N1)C(C)(C)C2 (single isomer, unassigned) [Compound 276] | ++ (++ is 30-60%) | < 1000
COC[C@@H]1CC[C@@H]2CN(c3nc(C(C)(C)C)ccc3C(=O)NS(=O)(=O)c3cccc(n3)N1)C(C)(C)C2 (single isomer, unassigned) [Compound 277] | +++ (+++ is >60%) | < 1000
Cn1ccc(C2CC[C@@H]3CN(c4nc(C(C)(C)C)ccc4C(=O)NS(=O)(=O)c4cccc(n4)N2)C(C)(C)C3)n1 (single isomer, unassigned) [Compound 278] | ++ (++ is 30-60%) | < 1000
Cn1ccc(C2CC[C@@H]3CN(c4nc(C(C)(C)C)ccc4C(=O)NS(=O)(=O)c4cccc(n4)N2)C(C)(C)C3)n1 (single isomer, unassigned) [Compound 279] | +++ (+++ is >60%) | < 1000
Cn1cc(C2CC[C@@H]3CN(c4nc(C(C)(C)C)ccc4C(=O)NS(=O)(=O)c4cccc(n4)N2)C(C)(C)C3)cn1 (single isomer, unassigned) [Compound 280] | +++ (+++ is >60%) | < 1000
Cn1cc(C2CC[C@@H]3CN(c4nc(C(C)(C)C)ccc4C(=O)NS(=O)(=O)c4cccc(n4)N2)C(C)(C)C3)cn1 (single isomer, unassigned) [Compound 281] | +++ (+++ is >60%) | < 1000

Reference: patent US20220313698A1, “MODULATORS OF CYSTIC FIBROSIS TRANSMEMBRANE CONDUCTANCE REGULATOR” (Vertex Pharmaceuticals Incorporated, priority 2019, published 2022)
